Patent publication US5801180A, “Quinazoline derivatives” (priority 1991, dated 1998)
Counter-ions that a name gives are not always drawn.

Molecular target: T1, cGMP-PDE prepared from the swine aeorta (Sus scrofa, UniProt A0A287B475)
T1 construct: The swine aeorta was sliced; from tissue; host or cells: swine aorta, 100000×g supernatant, DEAE-Toyopearl 650S fraction
Test: Enzyme inhibiting action with the use of cGMP-PDE prepared from the swine aorta
Type: biochemical
Conditions: CaM-independent cGMP-PDE, 1 mM EGTA, 1 μM cGMP substrate, DMSO 4% or below
How it was run: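 CaM-independent cGMP-PDE isolated from pig aorta supernatant by DEAE anion-exchange chromatography. Activity measured with 1 μM cGMP substrate in presence of 1 mM EGTA, following the Thompson method. Compounds added from DMSO, final DMSO 4% or below.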

Structure (SMILES) | IC50 [nM]
N#Cc1ccc2nc(Cl)nc(NCc3ccc4c(c3)OCO4)c2c1 [Example 93, 2-Chloro-4-(3,4-methylenedioxybenzyl)amino-6-cyanoquinazoline] | 32
COc1cc2c(N(CCO)Cc3ccc4c(c3)OCO4)nc(Cl)nc2c(OC)c1OC [Example 105, 2-Chloro-4-[N-(2-hydroxyethyl)-(3,4-methylenedioxybenzyl)amino]-6,7,8-trimethoxyquinazoline] | 180
Clc1ccc2nc(Cl)nc(NCc3ccc4c(c3)OCO4)c2c1 [Example 92, 2,6-Dichloro-4-(3,4-methylenedioxybenzyl)aminoquinazoline] | 94
COc1cc(OC)c2ncnc(NCc3ccc4c(c3)OCO4)c2c1 [Example 71, 4-(3,4-Methylenedioxybenzyl)amino-6,8-dimethoxyquinazoline] | 810
CCCOc1ccccc1-c1nc(NCc2ccc3c(c2)OCO3)c2ccccc2n1 [Example 84, 2-(2-Propoxyphenyl)-4-(3,4-methylenedioxybenzyl)aminoquinazoline] | 220
CSc1ccc2ncnc(NCc3ccc4nc[nH]c4c3)c2c1 [Example 52, 4-(Benzimidazol-5-ylmethyl)amino-6-methylthioquinazoline] | 69
COCCCCOc1nc(NCc2ccc3c(c2)OCO3)c2cc(Cl)ccc2n1 [Example 175, 2-(4-Methoxybutoxy)-4-(3,4-methylenedioxybenzyl)amino-6-chloroquinazoline] | 6
CCOC(=O)C1CCN(c2nc(NCc3ccc4c(c3)OCO4)c3cc(Cl)ccc3n2)CC1 [Example 206, 2-(4-Ethoxycarbonylpiperidino)-4-(3,4-methylenedioxybenzyl)amino-6-chloroquinazoline hydrochloride] | 29

The remaining compounds from weak to strong by IC50, led by results:

IC50 [nM] | Structure (SMILES)
23 | CCOC(=O)CNc1nc(NCc2ccc3c(c2)OCO3)c2cc(Cl)ccc2n1 [Example 213, 2-(Ethoxycarbonylmethyl)amino-4-(3,4-methylenendioxybenzyl)amino-6-chloroquinazoline]
15 | ON=Cc1nc(NCc2ccc3c(c2)OCO3)c2cc(Cl)ccc2n1 [Example 146, 2-Hydroxyiminomethyl-4-(3,4-methylenedioxybenzyl)amino-6-chloroquinazoline]
10 | OC1CCN(c2nc(NCc3ccc4c(c3)OCO4)c3cc(Cl)ccc3n2)CC1 [Example 185, 2-(4-Hydroxypiperidino)-4-(3,4-methylenedioxybenzyl)amino-6-chloroquinazoline]
8 | COc1ccc(CNc2nc(/C=C/C(=O)O)nc3ccc(Cl)cc23)cc1Cl [Example 124, (E)-2-(2-carboxyvinyl)-4-(3-chloro-4-methoxybenzyl)amino-6-chloroquinazoline]
5 | NC(=O)c1nc(NCc2ccc3c(c2)OCO3)c2cc(Cl)ccc2n1 [Example 134, 2-Carbamoyl-4-(3,4-methylenedioxybenzyl)amino-6-chloroquinazoline]
0.8 | N#Cc1ccc2nc(-n3ccnc3)nc(NCc3ccc4c(c3)OCO4)c2c1 [Example 193, 2-(Imidazol-1-yl)-4-(3,4-methylenedioxybenzyl)amino-6-cyanoquinazoline]
0.4 | COCCOc1nc(NCc2ccc3nc[nH]c3c2)c2cc(C#N)ccc2n1 [Example 171, 2-(2-Methoxyethoxy)-4-(benzimidazol-5-yl)methylamino-6-cyanoquinazoline]
